Measured values published in paper PMC6934085 (Science signaling, 2019).

How the values were obtained:
[1] = system: NOP receptor; details: cited from earlier work
[2] = target: T1, hNOP receptor (Homo sapiens, UniProt P41146); assay type: cell-based
[3] = target: T1, hNOP receptor; assay type: cell-based; remark: listed apart in the source
[4] = target: T2, NOP receptor (Mus musculus, UniProt P35377); assay: In vivo NOP receptor phosphorylation in brain of NOP-eGFP knock-in mice; details: SB 612111 30 mg/kg pretreatment 30 min, then AT-202 30 mg/kg
[5] = target: T2, NOP receptor; assay type: cell-based

T1 sequence (P41146 whole entry): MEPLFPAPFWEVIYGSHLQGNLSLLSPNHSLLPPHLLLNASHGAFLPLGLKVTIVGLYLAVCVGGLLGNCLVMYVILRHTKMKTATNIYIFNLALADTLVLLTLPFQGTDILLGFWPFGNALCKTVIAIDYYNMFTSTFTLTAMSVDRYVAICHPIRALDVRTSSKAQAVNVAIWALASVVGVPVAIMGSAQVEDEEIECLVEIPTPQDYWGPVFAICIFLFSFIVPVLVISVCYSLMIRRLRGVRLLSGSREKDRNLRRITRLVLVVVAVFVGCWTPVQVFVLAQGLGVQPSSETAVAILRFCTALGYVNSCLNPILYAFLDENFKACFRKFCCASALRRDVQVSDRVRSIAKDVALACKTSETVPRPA
T2 sequence (P35377 whole entry): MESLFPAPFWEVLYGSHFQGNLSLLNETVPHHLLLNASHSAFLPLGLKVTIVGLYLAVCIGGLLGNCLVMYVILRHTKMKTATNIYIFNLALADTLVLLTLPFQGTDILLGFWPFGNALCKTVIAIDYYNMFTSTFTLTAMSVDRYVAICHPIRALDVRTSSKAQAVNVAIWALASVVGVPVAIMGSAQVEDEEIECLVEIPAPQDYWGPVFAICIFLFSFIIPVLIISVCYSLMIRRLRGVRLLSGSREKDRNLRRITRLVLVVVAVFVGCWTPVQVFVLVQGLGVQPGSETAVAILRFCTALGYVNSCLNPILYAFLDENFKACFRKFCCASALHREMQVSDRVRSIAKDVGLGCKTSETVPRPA

## buprenorphine
[1]
  Agonist efficacy at the NOP receptor in cAMP inhibition assays: partial agonists
[2]
  Agonist activity in G protein signaling / GIRK channel activation: partial agonistic activity with a remarkably reduced maximal effect compared with N/OFQ
[3]
  Agonist-induced NOP receptor phosphorylation at Ser346, Ser351 and Thr362/Ser363: complete lack of NOP receptor phosphorylation

## Cc1cccc2c1CC[C@H](CN1CCC(c3c(Cl)cccc3Cl)CC1)C[C@@H]2O [SB 612111, (−)-cis-1-methyl-7-[[4-(2,6-dichlorophenyl)piperidin-1-yl]methyl]-6,7,8,9-tetrahy dro-5H-benzocyclohepten-5-ol]
[4]
  Block of AT-202-induced NOP receptor phosphorylation in mouse brain: could be blocked
[3]
  Inhibition of N/OFQ-induced NOP receptor phosphorylation: completely blocked N/OFQ-induced phosphorylation

## C=C[C@@]1(C)CC(=O)[C@]2(O)[C@@]3(C)[C@@H](O)CCC(C)(C)[C@@H]3[C@H](O)[C@H](OC(C)=O)[C@@]2(C)O1 [Forskolin, forskolin]
[3]
  NOP receptor phosphorylation by second messenger kinase activators: did not produce any detectable phosphorylation

## CC1(N2CCC(n3c([C@@H]4CCCNC4)nc4ccccc43)CC2)CCCCCCC1 [MCOPPB]
[5]
  NOP receptor internalization in ventral midbrain neurons: strong MCOPPB-induced NOP receptor internalization

## CN1CCc2cc(Cl)c(O)cc2[C@@H](c2ccccc2)C1 [SCH23390]
[2]
  Effect on N/OFQ-induced hyperpolarization: reversed the N/OFQ-evoked hyperpolarization
